The source of these data is patent publication US20230346961A1, “GLP-1 AND GIP RECEPTOR CO-AGONISTS” (Novo Nordisk A/S, priority 2020, published 2023).

The target of data set [1] is T1, mouse GLP-1 receptor (Mus musculus, UniProt O35659).
T1 sequence (O35659 22-463): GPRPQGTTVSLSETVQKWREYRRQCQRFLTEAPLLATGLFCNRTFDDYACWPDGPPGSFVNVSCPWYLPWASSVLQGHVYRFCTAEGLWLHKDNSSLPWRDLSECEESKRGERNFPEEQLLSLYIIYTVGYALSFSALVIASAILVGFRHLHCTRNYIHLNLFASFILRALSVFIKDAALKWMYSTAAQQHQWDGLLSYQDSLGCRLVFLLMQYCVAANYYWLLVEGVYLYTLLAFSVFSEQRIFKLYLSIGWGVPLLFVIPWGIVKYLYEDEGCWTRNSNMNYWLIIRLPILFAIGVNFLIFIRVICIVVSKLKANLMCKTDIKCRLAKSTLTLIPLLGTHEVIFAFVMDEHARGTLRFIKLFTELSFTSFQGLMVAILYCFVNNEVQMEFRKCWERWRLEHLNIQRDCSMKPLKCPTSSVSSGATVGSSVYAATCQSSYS

Data set [2] in a line: Pharmacokinetic study in minipigs (terminal half-life after i.v. administration). The data set is classed as in vivo. The settings on record: female, Göttingen, minipig, iv. As for the experimental part: The purpose of this example is to determine the half-life in vivo of the derivatives of the present invention after i.v. administration to minipigs, i.e. the prolongation of their time in the body and thereby their time of action. This is done in a pharmacokinetic (PK) study, where the terminal half-life of the derivative in question is determined. By terminal half-life is generally meant the period of time it takes to […] certain plasma concentration, measured after the initial distribution phase. Female Göttingen minipigs were obtained from Ellegaard Göttingen Minipigs (Dalmose, Denmark) approximately 7-14 months of age and weighing from approximately 16-35 kg were used in the studies. The minipigs were housed individually and fed restrictedly once daily with SDS minipig diet (Special Diets Services, Essex, UK). After at 3 weeks of acclimatisation two permanent central venous catheters were implanted in vena cava caudalis in each animal. The animals were allowed 1 week recovery after the surgery, and were then used for repeated pharmacokinetic studies with a suitable wash-out period between successive derivative dosing. The animals were fasted for approximately 18 hours before dosing and from 0 to 4 hours after dosing, but had adlibitum access to water during the whole period. […] Blood samples (for example 0.8 mL) were collected in 8 mM EDTA buffer and then centrifuged at 4° C. and 1942 g for 10 minutes. Plasma was pipetted into Micronic tubes on dry ice and kept at -20° C. until analysed for plasma concentration of the compounds using ELISA, or a similar antibody-based assay, or LCMS. […] (Pharsight Inc., Mountain View, CA, USA), and the resulting terminal half-lives (harmonic mean) determined.

Data set [3] has as its target human GLP-1 receptor (Homo sapiens, UniProt P43220). Briefly: cell-based. As to conditions: hGLP-1R.
The target in data set [4] is T2, mouse GIP receptor (Mus musculus, UniProt Q0P543).
T2 sequence (Q0P543 19-460): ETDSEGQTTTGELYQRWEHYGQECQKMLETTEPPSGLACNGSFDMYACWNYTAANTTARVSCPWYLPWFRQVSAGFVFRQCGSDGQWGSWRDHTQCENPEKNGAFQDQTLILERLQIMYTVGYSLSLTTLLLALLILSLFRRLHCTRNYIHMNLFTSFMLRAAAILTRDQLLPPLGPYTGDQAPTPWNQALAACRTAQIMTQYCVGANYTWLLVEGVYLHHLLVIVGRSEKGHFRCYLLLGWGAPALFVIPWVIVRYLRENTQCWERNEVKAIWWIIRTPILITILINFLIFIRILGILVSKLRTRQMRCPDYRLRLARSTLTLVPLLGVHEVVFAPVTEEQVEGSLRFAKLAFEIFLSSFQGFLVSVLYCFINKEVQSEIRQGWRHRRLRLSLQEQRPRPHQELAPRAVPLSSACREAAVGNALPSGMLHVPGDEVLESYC
Briefly: cell-based.
Protocol: The in vitro functional potency is the measure of target receptor activation in a whole cell assay.
In vitro functional potency was determined by measuring the response of the target receptor in a reporter gene assay in individual cell lines. […] When the respective receptor is activated, it results in the production of cAMP, which in turn results in expression of the luciferase protein. When assay incubation is completed, luciferase substrate (luciferin) is added resulting in the enzymatic conversion of luciferin to oxyluciferin and producing bioluminescence. The luminescence is measured as the readout for the assay.
The cells lines used in these assays were BHK cells with BHKTS13 as a parent cell line. The cell lines were derived from a clone containing the CRE luciferase element and were established by further transfection with the respective receptor to obtain the relevant cell line.
The cells were cultured at 37° C. with 5% CO2 in Cell Culture Medium. They were aliquoted and stored in liquid nitrogen. The cells were kept in continuous culture and were seeded out the day before each assay.
GLP-1R and GcgR Cell Culture Medium consisted of DMEM medium with 10% FBS, 500 μg/mL G418, and 300 μg/mL hygromycin. GIPR Cell Culture Medium consisted of DMEM medium with 10% FBS, 400 μg/mL G418, and 300 μg/mL hygromycin. Assay Buffer consisted of DMEM w/o phenol red, 10 mM Hepes, 1×Glutamax, 1% ovalbumin, and 0.1% Pluronic F-68 with the addition of HSA at twice the final assay concentration.
• 1) Cells were plated at 5000 cells/well and incubated overnight in the assay plate. • 2) Cells were washed once in DPBS. • 3) Stocks of the test compounds and reference compounds in concentrations ranging from 100-300 μM were diluted 1:150 in Assay Buffer. Compounds were then diluted 1:10 in column 1 of a 96 deep well dilution plate and then carried across the row creating a 3.5 fold, 12 point dilution curve. • 4) Assay Buffer (50 μl aliquot) with or without HSA was added to each well in the assay plate. • 5) A 50 μl aliquot of compound or blank was transferred from the dilution plate to the assay plate containing the Assay Buffer with or without HSA. • 6) The assay plate was incubated for 3 h in a 5% CO2 incubator at 37° C. 7) The cells were washed once with DPBS. • 8) A 100 μl aliquot of DPBS was added to each well of the assay plate. • 9) A 100 μl aliquot of steadylite plus reagent (light sensitive) was added to each well of the assay plate. • 10) Each assay plate was covered with aluminum foil to protect it from light and shaken at 250 RPM for 30 min at room temperature. • 11) Each assay plate was read in a microtiter plate reader.
The data from the microtiter plate reader was first regressed in an Excel in order to calculate the x-axis, log scale concentrations based on the individual test compound's stock concentration and the dilutions of the assay. […] The software performs a non-linear regression (log(agonist) vs response). A minimum of two replicates was measured for each sample. The reported values are averages of the replicates.

pEC50: −log10 of the molar value. Like-named read-outs stand apart in the source and are kept apart here. Starred links: 1 amine or outer side, 2 acyl side, 3 side chain; linkers in the order of their positions; H or OH if unused. Non-standard residues stand in square brackets, D forms with d. Residues, ends and D or L forms follow the SMILES beside them. Groups on a side chain read outwards from the residue. *: point of attachment. C20 diacid = O=C(O)CCCCCCCCCCCCCCCCCCC(=O)*; γGlu = O=C(O)[C@H](CCC(=O)[*:2])N[*:1]; εLys = N[C@@H](CCCCN[*:1])C(=O)[*:2]; Aib = CC(C)(N)C(=O)O

Sequence of human GLP-1 receptor (P43220 24-463): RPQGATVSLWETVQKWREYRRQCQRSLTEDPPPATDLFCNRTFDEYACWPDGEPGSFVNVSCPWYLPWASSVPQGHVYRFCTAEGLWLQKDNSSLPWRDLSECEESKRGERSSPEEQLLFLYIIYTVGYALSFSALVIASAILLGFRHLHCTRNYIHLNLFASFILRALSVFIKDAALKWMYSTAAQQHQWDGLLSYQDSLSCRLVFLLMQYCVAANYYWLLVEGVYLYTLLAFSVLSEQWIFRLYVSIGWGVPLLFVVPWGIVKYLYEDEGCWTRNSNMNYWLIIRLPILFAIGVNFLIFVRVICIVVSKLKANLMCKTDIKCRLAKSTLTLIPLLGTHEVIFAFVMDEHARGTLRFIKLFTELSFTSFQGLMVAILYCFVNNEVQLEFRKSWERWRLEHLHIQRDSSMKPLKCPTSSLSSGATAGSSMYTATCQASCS

Regarding `CC[C@H](C)[C@H](NC(=O)[C@H](CO)NC(=O)[C@H](Cc1ccc(O)cc1)NC(=O)[C@H](CC(=O)O)NC(=O)[C@H](CO)NC(=O)[C@@H](NC(=O)[C@H](Cc1ccccc1)NC(=O)[C@@H](NC(=O)CNC(=O)[C@H](CCC(=O)O)NC(=O)C(C)(C)NC(=O)[C@@H](N)Cc1ccc(O)cc1)[C@@H](C)O)[C@@H](C)O)C(=O)N[C@@H](Cc1ccc(O)cc1)C(=O)N[C@@H](CC(C)C)C(=O)N[C@@H](CCC(=O)O)C(=O)N[C@@H](CCC(=O)O)C(=O)N[C@@H](CCC(N)=O)C(=O)N[C@@H](C)C(=O)N[C@@H](C)C(=O)NC(C)(C)C(=O)N[C@@H](CCCCNC(=O)[C@@H](N)CCCCNC(=O)[C@@H](N)CCCCNC(=O)CC[C@H](NC(=O)CCCCCCCCCCCCCCCCCCC(=O)O)C(=O)O)C(=O)N[C@@H](Cc1ccccc1)C(=O)N[C@H](C(=O)N[C@@H](CC(N)=O)C(=O)N[C@@H](Cc1c[nH]c2ccccc12)C(=O)N[C@@H](CC(C)C)C(=O)N[C@@H](CC(C)C)C(=O)N[C@@H](C)C(=O)NCC(=O)NCC(=O)N1CCC[C@H]1C(=O)N[C@@H](CO)C(=O)N[C@@H](CO)C(=O)NCC(=O)N[C@@H](C)C(=O)N1CCC[C@H]1C(=O)N1CCC[C@H]1C(=O)N1CCC[C@H]1C(=O)N[C@@H](CO)C(N)=O)C(C)C` [Compound 27] (H-Y[Aib]EGTFTSDYSIYLEEQAA[Aib]K([εLys-εLys-γGlu-C20 diacid])FVNWLLAGGPSSGAPPPS-NH2; N-terminus assumed), the pEC50 is 11.38 in data set [1]; 11.48 in data set [3] (CRE Luc 0% HSA EC50, 0% HSA); 9.71 in data set [3] (CRE Luc 1% HSA EC50, 1% HSA); 9.26 in data set [4]. The half-life in data set [2] (in vivo) was 3.67 days.
With `CC[C@H](C)[C@H](NC(=O)[C@H](CO)NC(=O)[C@H](Cc1ccc(O)cc1)NC(=O)[C@H](CC(=O)O)NC(=O)[C@H](CO)NC(=O)[C@@H](NC(=O)[C@H](Cc1ccccc1)NC(=O)[C@@H](NC(=O)CNC(=O)[C@H](CCC(=O)O)NC(=O)C(C)(C)NC(=O)[C@@H](N)Cc1ccc(O)cc1)[C@@H](C)O)[C@@H](C)O)C(=O)N[C@@H](Cc1ccc(O)cc1)C(=O)N[C@@H](CC(C)C)C(=O)N[C@@H](CCC(=O)O)C(=O)N[C@@H](CCCCN)C(=O)N[C@@H](CCCCNC(=O)[C@@H](N)CCCCNC(=O)[C@@H](N)CCCCNC(=O)CC[C@H](NC(=O)CCCCCCCCCCCCCCCCCCC(=O)O)C(=O)O)C(=O)N[C@@H](C)C(=O)N[C@@H](C)C(=O)NC(C)(C)C(=O)N[C@@H](CCC(=O)O)C(=O)N[C@@H](Cc1ccccc1)C(=O)N[C@H](C(=O)N[C@@H](CCC(N)=O)C(=O)N[C@@H](Cc1c[nH]c2ccccc12)C(=O)N[C@@H](CC(C)C)C(=O)N[C@@H](CC(C)C)C(=O)N[C@@H](CCC(=O)O)C(=O)NCC(=O)NCC(=O)N1CCC[C@H]1C(=O)N[C@@H](CO)C(=O)N[C@@H](CO)C(=O)NCC(=O)N[C@@H](C)C(=O)N1CCC[C@H]1C(=O)N1CCC[C@H]1C(=O)N1CCC[C@H]1C(=O)N[C@@H](CO)C(N)=O)C(C)C` [Compound 35] (H-Y[Aib]EGTFTSDYSIYLEKK([εLys-εLys-γGlu-C20 diacid])AA[Aib]EFVQWLLEGGPSSGAPPPS-NH2; N-terminus assumed), the pEC50 in data set [1] is 11.89; in data set [3] (CRE Luc 0% HSA EC50, 0% HSA), 11.66; in data set [3] (CRE Luc 1% HSA EC50, 1% HSA), 9.77; in data set [4] it was 10.67. For the same compound, the half-life in data set [2] (plasma, minipigs, i.v. administration, harmonic mean, read-out: Terminal half-life t1/2 (converted)) is 3.75 days.
